Measurements published in patent US10829796B2, “Bacteria identification and antimicrobial susceptibility test” (priority 2015, dated 2020).

What was measured:
Assay type in all cases: cell-based
[1] = tested on: bacteria samples 4c, 4e, 5c, 5e, 6d; test: Antibiotic susceptibility testing (colour of media), plate configuration #3, reference colours at 0 hours for bacteria samples 4c, 4e, 5c, 5e, 6d; conditions: T~0 h
[2] = tested on: Streptococcus uberis; test: Antibiotic susceptibility testing (colour of media), spiked milk; conditions: for Colour of media in each well: T~16 h, 37° C., bacteria samples 6d, plate configuration #3
Procedure: (§1) Tables 36 to 38 which follow show further examples of antibiotic susceptibility testing performed in accordance with the present invention. Table 36, antibiotic susceptibility testing of Staphylococcus aureus in Mueller Hinton and Tryptic Soy Broth at pre-incubation and at between 15-24 h. Tables 37 and 38, antimicrobial susceptibility testing of Streptococcus uberis and E. coli with the addition of gram negative specific antibiotic aztreonam. Tables 38 to 49 show further examples of antibiotic susceptibility testing and the outcomes are aligned with the described inventions.

[3] = tested on: Staphylococcus aureus; test: as above; conditions: for Colour of media: Tryptic Soy (70 ul composition 2c), bacteria sample 5c; for Colour of media in each well: T~16 h, 37° C., plate configuration #3
Procedure: as §1

[4] = tested on: Escherichia coli; test: as above; conditions: for Colour of media in each well: 37° C., plate configuration #3
Procedure: as §1

[5] = bacteria sample 6d 4 μl + Composition 27 1 μl + drug solution (100 μg Aztreonam per ml water) 0.5 μl
[6] = bacteria sample 6d 8 μl + Composition 27 2 μl + drug solution (100 μg Aztreonam per ml water) 1 μl
[7] = bacteria sample 6d 20 μl + Composition 27 5 μl + drug solution (100 μg Aztreonam per ml water) 2.5 μl
[8] = bacteria sample 6d 40 μl + Composition 27 10 μl + drug solution (100 μg Aztreonam per ml water) 5 μl
[9] = bacteria sample 6d 80 μl + Composition 27 20 μl + drug solution (100 μg Aztreonam per ml water) 10 μl
[10] = bacteria sample 6d 160 μl + Composition 27 40 μl + drug solution (100 μg Aztreonam per ml water) 20 μl
[11] = bacteria sample 4d 4 μl + Composition 27 1 μl + drug solution (100 μg Aztreonam per ml water) 0.5 μl
[12] = bacteria sample 4d 8 μl + Composition 27 2 μl + drug solution (100 μg Aztreonam per ml water) 1 μl
[13] = bacteria sample 4d 20 μl + Composition 27 5 μl + drug solution (100 μg Aztreonam per ml water) 2.5 μl
[14] = bacteria sample 4d 40 μl + Composition 27 10 μl + drug solution (100 μg Aztreonam per ml water) 5 μl
[15] = bacteria sample 4d 80 μl + Composition 27 20 μl + drug solution (100 μg Aztreonam per ml water) 10 μl
[16] = bacteria sample 4d 160 μl + Composition 27 40 μl + drug solution (100 μg Aztreonam per ml water) 20 μl

C[C@H]1[C@H](NC(=O)/C(=N\OC(C)(C)C(=O)O)c2csc(N)n2)C(=O)N1S(=O)(=O)O [aztreonam]
Colour of media in each well ([1]; Aztreonam 0.001 μg/ml): red
Colour of media in each well ([1]; Aztreonam 0.01 μg/ml): red
Colour of media in each well ([1]; Aztreonam 0.1 μg/ml): red
Colour of media in each well ([1]; Aztreonam 1 μg/ml): red
Colour of media in each well ([1]; Aztreonam 10 μg/ml): red
Colour of media in each well ([2]; Aztreonam 0.001 μg/ml): yellow
Colour of media in each well ([2]; Aztreonam 0.01 μg/ml): yellow
Colour of media in each well ([2]; Aztreonam 0.1 μg/ml): yellow
Colour of media in each well ([2]; Aztreonam 1 μg/ml): yellow
Colour of media in each well ([2]; Aztreonam 10 μg/ml): yellow
Colour of media after 24 hours incubation at 37° C. [2, 5]: Black
Colour of media prior incubation [2, 5]: Red
Colour of media after 24 hours incubation at 37° C. [2, 6]: Black
Colour of media prior incubation [2, 6]: Red
Colour of media after 24 hours incubation at 37° C. [2, 7]: Black
Colour of media prior incubation [2, 7]: Red
Colour of media after 24 hours incubation at 37° C. [2, 8]: Black
Colour of media prior incubation [2, 8]: Red
Colour of media after 24 hours incubation at 37° C. [2, 9]: Black
Colour of media prior incubation [2, 9]: Red
Colour of media after 24 hours incubation at 37° C. [2, 10]: Black
Colour of media prior incubation [2, 10]: Red
Colour of media ([3]; T = 0 hours (pre incubation), drug 0.01 μg/ml): red
Colour of media ([3]; T = 0 hours (pre incubation), drug 0.05 μg/ml): red
Colour of media ([3]; T = 0 hours (pre incubation), drug 0.1 μg/ml): red
Colour of media ([3]; T = 0 hours (pre incubation), drug 0.5 μg/ml): red
Colour of media ([3]; T = 0 hours (pre incubation), drug 1 μg/ml): red
Colour of media ([3]; T = 0 hours (pre incubation), drug 5 μg/ml): red
Colour of media ([3]; T = 0 hours (pre incubation), drug 10 μg/ml): red
Colour of media ([3]; T = 0 hours (pre incubation), drug 50 μg/ml): red
Colour of media ([3]; T = 0 hours (pre incubation), drug 100 μg/ml): red
Colour of media ([3]; T = 0 hours (pre incubation), drug 500 μg/ml): red
Colour of media ([3]; T = 15-24 h at 35° C., drug 0.01 μg/ml): yellow
Colour of media ([3]; T = 15-24 h at 35° C., drug 0.05 μg/ml): yellow
Colour of media ([3]; T = 15-24 h at 35° C., drug 0.1 μg/ml): yellow
Colour of media ([3]; T = 15-24 h at 35° C., drug 0.5 μg/ml): yellow
Colour of media ([3]; T = 15-24 h at 35° C., drug 1 μg/ml): yellow
Colour of media ([3]; T = 15-24 h at 35° C., drug 5 μg/ml): yellow
Colour of media ([3]; T = 15-24 h at 35° C., drug 10 μg/ml): yellow
Colour of media ([3]; T = 15-24 h at 35° C., drug 50 μg/ml): yellow
Colour of media ([3]; T = 15-24 h at 35° C., drug 100 μg/ml): yellow
Colour of media ([3]; T = 15-24 h at 35° C., drug 500 μg/ml): yellow
Colour of media in each well ([3]; bacteria samples 5c, Aztreonam 0.001 μg/ml): red
Colour of media in each well ([3]; bacteria samples 5c, Aztreonam 0.01 μg/ml): yellow
Colour of media in each well ([3]; bacteria samples 5c, Aztreonam 0.1 μg/ml): yellow
Colour of media in each well ([3]; bacteria samples 5c, Aztreonam 1 μg/ml): yellow
Colour of media in each well ([3]; bacteria samples 5c, Aztreonam 10 μg/ml): yellow
Colour of media in each well ([3]; bacteria samples 5e, Aztreonam 0.001 μg/ml): yellow
Colour of media in each well ([3]; bacteria samples 5e, Aztreonam 0.01 μg/ml): yellow
Colour of media in each well ([3]; bacteria samples 5e, Aztreonam 0.1 μg/ml): yellow
Colour of media in each well ([3]; bacteria samples 5e, Aztreonam 1 μg/ml): yellow
Colour of media in each well ([3]; bacteria samples 5e, Aztreonam 10 μg/ml): yellow
Colour of media in each well ([4]; T~16 h, bacteria samples 4c, Aztreonam 0.001 μg/ml): yellow
Colour of media in each well ([4]; T~16 h, bacteria samples 4c, Aztreonam 0.01 μg/ml): yellow
Colour of media in each well ([4]; T~16 h, bacteria samples 4c, Aztreonam 0.1 μg/ml): yellow
Colour of media in each well ([4]; T~16 h, bacteria samples 4c, Aztreonam 1 μg/ml): yellow
Colour of media in each well ([4]; T~16 h, bacteria samples 4c, Aztreonam 10 μg/ml): yellow
Colour of media after 24 hours incubation at 37° C. [4, 11]: Red
Colour of media prior incubation [4, 11]: Red
Colour of media after 24 hours incubation at 37° C. [4, 12]: Red
Colour of media prior incubation [4, 12]: Red
Colour of media after 24 hours incubation at 37° C. [4, 13]: Red
Colour of media prior incubation [4, 13]: Red
Colour of media after 24 hours incubation at 37° C. [4, 14]: Red
Colour of media prior incubation [4, 14]: Red
Colour of media after 24 hours incubation at 37° C. [4, 15]: Red
Colour of media prior incubation [4, 15]: Red
Colour of media after 24 hours incubation at 37° C. [4, 16]: Red
Colour of media prior incubation [4, 16]: Red
Colour of media in each well ([4]; t~16 h, bacteria samples 4e, Aztreonam 0.001 μg/ml): yellow
Colour of media in each well ([4]; t~16 h, bacteria samples 4e, Aztreonam 0.01 μg/ml): yellow
Colour of media in each well ([4]; t~16 h, bacteria samples 4e, Aztreonam 0.1 μg/ml): yellow
Colour of media in each well ([4]; t~16 h, bacteria samples 4e, Aztreonam 1 μg/ml): red
Colour of media in each well ([4]; t~16 h, bacteria samples 4e, Aztreonam 10 μg/ml): red
